The test system of data set [1] is NAD+ content of A2780 cells. Nature of the data set: NAD+ assay in A2780 cells. The format is cell-based, human. The settings on record: for Relative NAD+: 0 nM = 100. The protocol:
NAD^+ assays were performed to quantify the total NAD^+ content. NAD^+ assay was performed using the NAD/NADH Assay Kit (ab65348; Abcam) according to the manufacturer’s recommended protocol.

In another data set the test system is CT-26 cells. Nature of the data set: MTT assay 48 h, CT-26. The format is cell-based, mouse. How it is done:
(§1) Cells (5 × 10^3/well) were seeded into a 96-well plate and cultured at 37 °C in a 5% CO2 incubator. […] At the final time point, 10 μl MTT solution (5 mg/ml, Sigma, Burlington, MA, USA) was added to each well and incubated for an additional 4 h at 37 °C in a 5% CO2 incubator. Then,100 μl of DMSO was added to each well and mixed thoroughly. Optical density was measured at 492 nm using a microplate reader (Molecular Devices, San Jose, CA, USA).

The subject of a further data set is H1299 cells. Nature of the data set: MTT assay 48 h, H1299. It counts as cell-based, human. To be noted: 1299. The protocol: as §1
For orientation: Tetrazolium dyes change colour on reduction, which living cells bring about.

In data set [2] the test system is LLC OE N/P cells co-cultured with T cells. Briefly: T cell-mediated tumor cell killing assay, LLC OE N/P. To be noted: Mus musculus, 100 nM, read-out: inhibition rate (T cell-mediated killing). The format is cell-based. The protocol: To acquire activated T cells, human peripheral blood mononuclear cells (PBMC; LTS1077, Yanjin Biological) were cultured in CTSTM AIIM VTM SFM (A3021002; Gibco) with ImmunoCult Human CD3/CD28/CD2 T-cell activator (25 µL/mL; […] Technologies, Cat#10970) for 48 h according to the manufacturer’s protocol. The experiments were performed using mouse anti-CD3 antibody (1 µg/mL; Thermo Scientific, 16-0032-82) and anti-CD28 antibody(5 µg/mL; Thermo Scientific, 16-0281-82). Cancer cells were allowed to adhere to the plates overnight and then incubated for 48 h with activated T cells in the presence or absence of DX ([…]). Different proportions of cancer cells and activated T cells were utilized according to the purpose of each experiment. The T-cell proliferation assay was 1:3; the T-cell killing assay was 1:10; T cells and cell debris were removed by PBS washing, and the living cancer cells were then quantified by a spectrometer at OD (570 nm) followed by crystal violet staining. page 12: Fig 3: […] expression patterns. […] Data was obtained from the TCGA database. (B) T cell-mediated tumor cell killing assay. T cells were co-cultured with LLC Vector, […] CQ-85, or BMS202. […] stained by crystal violet. The relative added value of activated T cells is shown below. Data are presented as mean ± SEM; *P < 0.05, **P < 0.01, ***P < 0.001, compared with control. n.s., not significant. […]

For a further data set, the target named is NAMPT (Homo sapiens, UniProt P43490). Briefly: In vitro NAMPT activity assay (Abcam kit). It counts as biochemical. Details: purchased Abcam ab221819.
NAMPT, sequence (P43490 whole entry, species assumed): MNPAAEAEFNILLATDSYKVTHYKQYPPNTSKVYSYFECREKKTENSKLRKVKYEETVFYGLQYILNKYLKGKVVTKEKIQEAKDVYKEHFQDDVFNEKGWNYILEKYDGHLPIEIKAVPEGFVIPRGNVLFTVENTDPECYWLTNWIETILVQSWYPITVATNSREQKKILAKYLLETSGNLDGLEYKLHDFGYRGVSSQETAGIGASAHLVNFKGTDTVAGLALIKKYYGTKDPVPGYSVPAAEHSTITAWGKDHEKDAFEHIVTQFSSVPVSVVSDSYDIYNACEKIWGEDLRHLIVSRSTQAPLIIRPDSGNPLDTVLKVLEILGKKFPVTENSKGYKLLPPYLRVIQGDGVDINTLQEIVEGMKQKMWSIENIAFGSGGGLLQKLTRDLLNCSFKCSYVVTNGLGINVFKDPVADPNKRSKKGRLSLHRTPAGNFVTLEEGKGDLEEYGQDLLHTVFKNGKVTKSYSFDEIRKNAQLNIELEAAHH
For data set [3], the system named is LLC cells co-cultured with T cells. Nature of the data set: T cell killing assay (colony formation), LLC sh Vector. It counts as cell-based. The settings on record: Mus musculus, 72 h, 100 nM, three days, read-out: inhibition rate of colony formation number. How it is done:
(§2) To acquire activated T cells, human peripheral blood mononuclear cells (PBMC; LTS1077, Yanjin Biological) were cultured in CTSTM AIIM VTM SFM (A3021002; Gibco) with ImmunoCult Human CD3/CD28/CD2 T-cell activator (25 μL/mL; […] Technologies, Cat#10970) for 48 h according to the manufacturer's protocol. The experiments were performed using mouse anti-CD3 antibody (1 μg/mL; Thermo Scientific, 16-0032-82) and anti-CD28 antibody(5 μg/mL; Thermo Scientific, 16-0281-82). […] Different proportions of cancer cells and activated T cells were utilized according to the purpose of each experiment. The T-cell proliferation assay was 1:3; the T-cell killing assay was 1:10; T cells and cell debris were removed by PBS washing, and the living cancer cells were then quantified by a spectrometer at OD (570 nm) followed by crystal violet staining. page 28: Fig 8: Effects of LZFPN-90 and NMN on tumor immune microenvironment. […] (C) T cells were co-cultured with LLC cells, and treated with LZFPN-90 (100 nM), and NMN (1 mM) to detect the cell proliferation by T cell killing assay. Data are presented as mean ± SEM; *P < 0.05, **P < 0.01, ***P < 0.001 compared with control. n.s., not significant. (1 picture or pasted object on this page, not shown here)

Another data set concerns Hep-3B cells. Nature of the data set: MTT assay 48 h, Hep-3B. The format is cell-based, human. How it is done:
as §1

Data set [4] deals with LLC sh PD-L1 cells co-cultured with T cells. Briefly: T cell killing assay (colony formation), LLC sh PD-L1. The format is cell-based. The settings on record: Mus musculus, 72 h, 100 nM, three days, read-out: inhibition rate of colony formation number. How it is done: as §2
Data set [5] has as its system LLC OE NAMPT/PD-L1 tumors. Briefly: LLC OE NAMPT/PD-L1 tumor-bearing C57BL/6 mice. It counts as in vivo, mouse. To be noted: 20 mg/kg i.p.
Data set [6] deals with LLC cells. Nature of the data set: Clonogenic assay, LLC. The settings on record: 9 days. The format is cell-based, mouse. How it is done:
Cells (3 × 10^2/well) were plated in a six-well plate and the culture medium was replaced every 2 days. After culturing for 7–10 d, the cells were fixed with 4% paraformaldehyde for 15 min, stained with 0.1% crystal violet for 30 min, and imaged and counted.

The test system of data set [7] is LLC cells. Briefly: MTT assay 48 h, LLC. It counts as cell-based, mouse. The protocol:
as §1

The subject of another data set is MDA-MB-231 cells. Nature of the data set: MTT assay 48 h, MDA-MB-231. It counts as cell-based, human. How it is done:
as §1

“And” between values parts separate entries of the source, which are not always exact repeats. Identical values can stand only once.

With `CCN(CC)CCCOc1cccc(-c2cccc3c2CCN3C(=O)c2ncc(CNC(=NC#N)Nc3ccncc3)s2)c1` [LZFPN-90], in [1] (A2780 cells), the “effect on NAD+ content” value was “concentration-dependent reduction in the NAD^+ content”. The “Relative NAD+” value in [1] (LZFPN-90 1.25 nM) was 35.1891 and 32.3761; in [1] (LZFPN-90 2.5 nM), 12.5247 and 11.2894; in data set [1] (LZFPN-90 5 nM), 8.877 and 6.867; in data set [1] (LZFPN-90 10 nM), 2.626 and 2.637. Also, the “Relative inhibition (敏感性)” value came out at 0.17 in the data set on CT-26 cells; 0.02 in the data set with H1299 cells; 0.42 with Hep-3B cells; 0.15 with LLC cells [7] (LLC); 0.09 in the data set with MDA-MB-231 cells. The results for the inhibition at 0.1 µM in data set [2], in data set [3] and in data set [4] were around 80%, 48.2% and 21.9%, respectively. For the same molecule, half-maximal inhibition at NAMPT (IC50) was put at 28 nM. The “mode of NAMPT inhibition” value at NAMPT (concluded from NMN reversal of NAD+ reduction) was “NAMPT competitive inhibitor”. In addition, the “TIR / tumor growth inhibition (TGI) rate at endpoint” value in data set [5] (14 days, Fig 7B) is 76.01%. For the same molecule, in data set [5] (LLC OE NAMPT/PD-L1, Fig 7G), the “TIR (relative tumor weight)” value is listed as 76.0%. Further, in data set [5] (LLC OE NAMPT/PD-L1 model), the “effect on the organs of mice” value is on record as “minor effect on the organs of mice”. The “Colony formation relative to Ctrl” value came to 0.24 with LLC cells [6] (LZ90-H (80 nM)); 0.68 in the data set with LLC cells [6] (LZ90-L (20 nM), Ctrl = 1); 0.53 in the data set with LLC cells [6] (LZ90-M (40 nM)). The “effect on relative viability of LLC cells” value in the data set on LLC cells [7] (MTT, 64 nM) is on record as “basically had no effect”.

Source of the values: PMC11018795, “The regulatory relationship between NAMPT and PD-L1 in cancer and identification of a dual-targeting inhibitor” (EMBO Molecular Medicine, 2024).
